From patent US10760110B2, “Antibiotic testing and screening system” (priority 2017, dated 2020)
Read-outs that look alike come from different tables or passages of the source.

Tested on: K. pneumoniae NVT1001 strains with ESBL or AmpC β-lactamase plasmids
Test: Etest MIC of β-lactams, OmpK35/36 loss, ΔramR and/or extended-spectrum β-lactamase and AmpC β-lactamase (Table 8)
Type: cell-based, Klebsiella pneumoniae
Conditions: for MIC: Klebsiella pneumoniae
Description: DNA fragments of the resistance genes along with their flanking regions were amplified from clinical plasmids via PCR with specific primer pairs. The resulting PCR fragments were digested and then cloned into the plasmid pACYC177 or pACYC184. The resulting plasmids were then transformed into K. pneumoniae strain NVT1001 via electroporation. The recombinant bacteria were plated onto LB agar plates containing kanamycin (50 mg/L) or chloramphenicol (50 mg/L), and the presence of the cloned gene was confirmed via PCR and DNA sequencing.
The MICs of antibiotics were determined using the Etest (Biodisk AB, Sweden) according to the manufacturer's instructions. The MICs from the Etest, which fall between standard two-fold dilutions, were rounded up to the next highest two-fold value. The MICs of ceftazidime and cefotaxime against K. pneumoniae NVT1001 harbouring the pACYC177 plasmid with blaOXA-48 were further determined using a broth microdilution test according to the recommendations of the CLSI,^25 and the results were interpreted according to the breakpoints established by the CLSI in 2017.^25 Meanwhile, due to the lack of CLSI breakpoints in 2016 and 2017, the results for cephalothin were interpreted according to the breakpoints established by the CLSI in 2015,^26 and the results for moxifloxacin were interpreted according to the breakpoints established by the EUCAST in 2017.^27

[1] = CMY-2 on pACYC177, WT (NVT1001), read-out: MIC
[2] = CMY-2 on pACYC177, Δ35 (ΔompK35 mutant)
[3] = CMY-2 on pACYC177, Δ35/36 (ΔompK35/36 mutant)
[4] = CMY-2 on pACYC177, Δ36 (ΔompK36 mutant)
[5] = CMY-2 on pACYC177, ΔramR mutant
[6] = CMY-2 on pACYC177, ΔramRΔ35 (ΔramRΔompK35 mutant)
[7] = CMY-2 on pACYC177, ΔramRΔ35/36 (ΔramRΔompK35/36 mutant)
[8] = CMY-2 on pACYC177, ΔramRΔ36 (ΔramRΔompK36 mutant)
[9] = CTX-M-14 on pACYC177, WT (NVT1001), read-out: MIC
[10] = CTX-M-14 on pACYC177, Δ35 (ΔompK35 mutant)
[11] = CTX-M-14 on pACYC177, Δ35/36 (ΔompK35/36 mutant)
[12] = CTX-M-14 on pACYC177, Δ36 (ΔompK36 mutant)
[13] = CTX-M-14 on pACYC177, ΔramR mutant
[14] = CTX-M-14 on pACYC177, ΔramRΔ35 (ΔramRΔompK35 mutant)
[15] = CTX-M-14 on pACYC177, ΔramRΔ35/36 (ΔramRΔompK35/36 mutant)
[16] = CTX-M-14 on pACYC177, ΔramRΔ36 (ΔramRΔompK36 mutant)
[17] = CTX-M-15 on pACYC177, WT (NVT1001), read-out: MIC
[18] = CTX-M-15 on pACYC177, Δ35 (ΔompK35 mutant)
[19] = CTX-M-15 on pACYC177, Δ35/36 (ΔompK35/36 mutant)
[20] = CTX-M-15 on pACYC177, Δ36 (ΔompK36 mutant)
[21] = CTX-M-15 on pACYC177, ΔramR mutant
[22] = CTX-M-15 on pACYC177, ΔramRΔ35 (ΔramRΔompK35 mutant)
[23] = CTX-M-15 on pACYC177, ΔramRΔ35/36 (ΔramRΔompK35/36 mutant)
[24] = CTX-M-15 on pACYC177, ΔramRΔ36 (ΔramRΔompK36 mutant)
[25] = DHA-1-AmpR on pACYC177, WT (NVT1001), read-out: MIC
[26] = DHA-1-AmpR on pACYC177, Δ35 (ΔompK35 mutant)
[27] = DHA-1-AmpR on pACYC177, Δ35/36 (ΔompK35/36 mutant)
[28] = DHA-1-AmpR on pACYC177, Δ36 (ΔompK36 mutant)
[29] = DHA-1-AmpR on pACYC177, ΔramR mutant
[30] = DHA-1-AmpR on pACYC177, ΔramRΔ35 (ΔramRΔompK35 mutant)
[31] = DHA-1-AmpR on pACYC177, ΔramRΔ35/36 (ΔramRΔompK35/36 mutant)
[32] = DHA-1-AmpR on pACYC177, ΔramRΔ36 (ΔramRΔompK36 mutant)
[33] = SHV-12 on pACYC177, WT (NVT1001), read-out: MIC
[34] = SHV-12 on pACYC177, Δ35 (ΔompK35 mutant)
[35] = SHV-12 on pACYC177, Δ35/36 (ΔompK35/36 mutant)
[36] = SHV-12 on pACYC177, Δ36 (ΔompK36 mutant)
[37] = SHV-12 on pACYC177, ΔramR mutant
[38] = SHV-12 on pACYC177, ΔramRΔ35 (ΔramRΔompK35 mutant)
[39] = SHV-12 on pACYC177, ΔramRΔ35/36 (ΔramRΔompK35/36 mutant)
[40] = SHV-12 on pACYC177, ΔramRΔ36 (ΔramRΔompK36 mutant)
[41] = no supplemental plasmid, WT (NVT1001), read-out: MIC
[42] = no supplemental plasmid, Δ35 (ΔompK35 mutant)
[43] = no supplemental plasmid, Δ35/36 (ΔompK35/36 mutant)
[44] = no supplemental plasmid, Δ36 (ΔompK36 mutant)
[45] = no supplemental plasmid, ΔramR mutant
[46] = no supplemental plasmid, ΔramRΔ35 (ΔramRΔompK35 mutant)
[47] = no supplemental plasmid, ΔramRΔ35/36 (ΔramRΔompK35/36 mutant)
[48] = no supplemental plasmid, ΔramRΔ36 (ΔramRΔompK36 mutant)

CC(=O)OCC1=C(C(=O)O)N2C(=O)[C@@H](NC(=O)Cc3cccs3)[C@H]2SC1 [Cephalothin]
MIC [1]: > 256 µg/mL | MIC [2]: > 256 µg/mL | MIC [3]: > 256 µg/mL | MIC [4]: > 256 µg/mL | MIC [5]: > 256 µg/mL | MIC [6]: > 256 µg/mL | MIC [7]: > 256 µg/mL | MIC [8]: > 256 µg/mL | MIC [9]: > 256 µg/mL | MIC [10]: > 256 µg/mL | MIC [11]: > 256 µg/mL | MIC [12]: > 256 µg/mL | MIC [13]: > 256 µg/mL | MIC [14]: > 256 µg/mL | MIC [15]: > 256 µg/mL | MIC [16]: > 256 µg/mL | MIC [17]: > 256 µg/mL | MIC [18]: > 256 µg/mL | MIC [19]: > 256 µg/mL | MIC [20]: > 256 µg/mL | MIC [21]: > 256 µg/mL | MIC [22]: > 256 µg/mL | MIC [23]: > 256 µg/mL | MIC [24]: > 256 µg/mL | MIC [25]: > 256 µg/mL | MIC [26]: > 256 µg/mL | MIC [27]: > 256 µg/mL | MIC [28]: > 256 µg/mL | MIC [29]: > 256 µg/mL | MIC [30]: > 256 µg/mL | MIC [31]: > 256 µg/mL | MIC [32]: > 256 µg/mL | MIC [33]: > 256 µg/mL | MIC [34]: > 256 µg/mL | MIC [35]: > 256 µg/mL | MIC [36]: > 256 µg/mL | MIC [37]: > 256 µg/mL | MIC [38]: > 256 µg/mL | MIC [39]: > 256 µg/mL | MIC [40]: > 256 µg/mL | MIC [41]: 8 µg/mL | MIC [42]: 8 µg/mL | MIC [43]: 256 µg/mL | MIC [44]: 16 µg/mL | MIC [45]: 64 µg/mL | MIC [46]: 64 µg/mL | MIC [47]: > 256 µg/mL | MIC [48]: > 256 µg/mL

C[C@@H](O)[C@H]1C(=O)N2C(C(=O)O)=C(S[C@@H]3CN[C@H](CNS(N)(=O)=O)C3)[C@H](C)[C@H]12 [Doripenem]
MIC [1]: 0.25 µg/mL | MIC [2]: 0.25 µg/mL | MIC [3]: 8 µg/mL | MIC [4]: 1 µg/mL | MIC [5]: 0.125 µg/mL | MIC [6]: 0.125 µg/mL | MIC [7]: 4 µg/mL | MIC [8]: 4 µg/mL | MIC [9]: 0.125 µg/mL | MIC [10]: 0.125 µg/mL | MIC [11]: 1 µg/mL | MIC [12]: 0.125 µg/mL | MIC [13]: 0.06 µg/mL | MIC [14]: 0.06 µg/mL | MIC [15]: 0.5 µg/mL | MIC [16]: 0.5 µg/mL | MIC [17]: 0.125 µg/mL | MIC [18]: 0.125 µg/mL | MIC [19]: 4 µg/mL | MIC [20]: 0.25 µg/mL | MIC [21]: 0.125 µg/mL | MIC [22]: 0.125 µg/mL | MIC [23]: 2 µg/mL | MIC [24]: 2 µg/mL | MIC [25]: 0.125 µg/mL | MIC [26]: 0.125 µg/mL | MIC [27]: 8 µg/mL | MIC [28]: 0.25 µg/mL | MIC [29]: 0.125 µg/mL | MIC [30]: 0.125 µg/mL | MIC [31]: 4 µg/mL | MIC [32]: 4 µg/mL | MIC [33]: 0.125 µg/mL | MIC [34]: 0.125 µg/mL | MIC [35]: 1 µg/mL | MIC [36]: 0.125 µg/mL | MIC [37]: 0.06 µg/mL | MIC [38]: 0.06 µg/mL | MIC [39]: 0.5 µg/mL | MIC [40]: 0.5 µg/mL | MIC [41]: 0.06 µg/mL | MIC [42]: 0.06 µg/mL | MIC [43]: 0.125 µg/mL | MIC [44]: 0.06 µg/mL | MIC [45]: 0.03 µg/mL | MIC [46]: 0.03 µg/mL | MIC [47]: 0.5 µg/mL | MIC [48]: 0.25 µg/mL | effects on the MIC (production of ESBLs tested alone): no significant (≥4-fold) effects | effects on the MIC (strains with ΔramR, with or without ESBLs or AmpC β-lactamases): no significant (≥4-fold) effects

C[C@@H](O)[C@H]1C(=O)N2C(C(=O)O)=C(S[C@@H]3CN[C@H](C(=O)Nc4cccc(C(=O)O)c4)C3)[C@H](C)[C@H]12 [Ertapenem]
MIC [1]: 1 µg/mL | MIC [2]: 1 µg/mL | MIC [3]: > 32 µg/mL | MIC [4]: 4 µg/mL | MIC [5]: 1 µg/mL | MIC [6]: 1 µg/mL | MIC [7]: > 32 µg/mL | MIC [8]: > 32 µg/mL | MIC [9]: 0.125 µg/mL | MIC [10]: 0.25 µg/mL | MIC [11]: 8 µg/mL | MIC [12]: 0.25 µg/mL | MIC [13]: 0.25 µg/mL | MIC [14]: 0.25 µg/mL | MIC [15]: 16 µg/mL | MIC [16]: 16 µg/mL | MIC [17]: 0.5 µg/mL | MIC [18]: 0.5 µg/mL | MIC [19]: > 32 µg/mL | MIC [20]: 0.5 µg/mL | MIC [21]: 0.5 µg/mL | MIC [22]: 0.5 µg/mL | MIC [23]: > 32 µg/mL | MIC [24]: > 32 µg/mL | MIC [25]: 1 µg/mL | MIC [26]: 1 µg/mL | MIC [27]: > 32 µg/mL | MIC [28]: 1 µg/mL | MIC [29]: 1 µg/mL | MIC [30]: 1 µg/mL | MIC [31]: > 32 µg/mL | MIC [32]: > 32 µg/mL | MIC [33]: 0.06 µg/mL | MIC [34]: 0.06 µg/mL | MIC [35]: 4 µg/mL | MIC [36]: 0.06 µg/mL | MIC [37]: 0.125 µg/mL | MIC [38]: 0.125 µg/mL | MIC [39]: 4 µg/mL | MIC [40]: 4 µg/mL | MIC [41]: 0.015 µg/mL | MIC [42]: 0.03 µg/mL | MIC [43]: 2 µg/mL | MIC [44]: 0.03 µg/mL | MIC [45]: 0.125 µg/mL | MIC [46]: 0.125 µg/mL | MIC [47]: 4 µg/mL | MIC [48]: 4 µg/mL
